Results from ChEMBL document CHEMBL1201862, “PubChem BioAssay data set” (2004).
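Tested at 5 concentrations; 48 h exposure; 96-well plates; endpoints linearly interpolated, else capped at highest concentration. GI50 = concentration required for 50% inhibition of growth.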 Calls of active or inactive are those of the source. No stated cut-off is given here; in the data, active = GI50 up to about 1.1 µM and inactive = higher.

How the values were obtained:
Assay in all cases: NCI anticancer screen, dose series, 48 h
NCI-H460 = test system: NCI-H460
K562 = test system: K562
RXF 393 = test system: RXF 393
HOP-62 = test system: HOP-62
OVCAR-5 = test system: OVCAR-5
Malme-3M = test system: Malme-3M
NCI-H226 = test system: NCI-H226
HCC 2998 = test system: HCC 2998
CAKI-1 = test system: CAKI-1
U-251 = test system: U-251
ACHN = test system: ACHN
DMS-114 = test system: DMS-114
UACC-62 = test system: UACC-62
SF-268 = test system: SF-268
SW-620 = test system: SW-620
SK-MEL-28 = test system: SK-MEL-28
NCI-H522 = test system: NCI-H522
OVCAR-3 = test system: OVCAR-3
SNB-19 = test system: SNB-19
A549 = test system: A549
HCT-116 = test system: HCT-116
SK-MEL-5 = test system: SK-MEL-5
IGROV-1 = test system: IGROV-1
SNB-75 = test system: SNB-75
786-0 = test system: 786-0
HL-60 = test system: HL-60
LOX IMVI = test system: LOX IMVI
M14 = test system: M14
SN12C = test system: SN12C
DMS-273 = test system: DMS-273
HT-29 = test system: HT-29
SF-539 = test system: SF-539
SR = test system: SR
SK-OV-3 = test system: SK-OV-3
SF-295 = test system: SF-295
COLO 205 = test system: COLO 205
UO-31 = test system: UO-31
NCI-H23 = test system: NCI-H23
MOLT-4 = test system: MOLT-4
M19-MEL = test system: M19-MEL
UACC-257 = test system: UACC-257
TK-10 = test system: TK-10
SK-MEL-2 = test system: SK-MEL-2
OVCAR-8 = test system: OVCAR-8
EKVX = test system: EKVX
RPMI-8226 = test system: RPMI-8226
HCT-15 = test system: HCT-15
CCRF-CEM = test system: CCRF-CEM
KM-20L2 = test system: KM-20L2
DLD-1 = test system: DLD-1

CC1CCc2c(sc3ncnc(N/N=C/c4ccc(Cl)c(Cl)c4)c23)C1 (stereo not given)
GI50 (NCI-H460): 7.4 µM (inactive)
GI50 (K562): 4.4 µM (inactive)
GI50 (RXF 393): 20.9 µM (inactive)
GI50 (HOP-62): 25.2 µM (inactive)
GI50 (OVCAR-5): 32.7 µM (inactive)
GI50 (Malme-3M): 31.2 µM (inactive)
GI50 (NCI-H226): 16.4 µM (inactive)
GI50 (HCC 2998): 23.6 µM (inactive)
GI50 (CAKI-1): 26.2 µM (inactive)
GI50 (U-251): 5.2 µM (inactive)
GI50 (ACHN): 5.38 µM (inactive)
GI50 (DMS-114): 3.79 µM (inactive)
GI50 (UACC-62): 18.2 µM (inactive)
GI50 (SF-268): 13.3 µM (inactive)
GI50 (SW-620): 6.07 µM (inactive)
GI50 (SK-MEL-28): 21.2 µM (inactive)
GI50 (NCI-H522): 5.45 µM (inactive)
GI50 (OVCAR-3): 17 µM (inactive)
GI50 (SNB-19): 17.5 µM (inactive)
GI50 (A549): 4.13 µM (inactive)
GI50 (HCT-116): 4.55 µM (inactive)
GI50 (SK-MEL-5): 16.7 µM (inactive)
GI50 (IGROV-1): 37.2 µM (inactive)
GI50 (SNB-75): 15.1 µM (inactive)
GI50 (786-0): 15.6 µM (inactive)
GI50 (HL-60): 22.2 µM (inactive)
GI50 (LOX IMVI): 11.9 µM (inactive)
GI50 (M14): 14.3 µM (inactive)
GI50 (SN12C): 19.4 µM (inactive)
GI50 (DMS-273): 7.98 µM (inactive)
GI50 (HT-29): 13.6 µM (inactive)
GI50 (SF-539): 21.7 µM (inactive)
GI50 (SR): 4.83 µM (inactive)
GI50 (SK-OV-3): 25.2 µM (inactive)
GI50 (SF-295): 11.4 µM (inactive)
GI50 (COLO 205): 6.17 µM (inactive)
GI50 (UO-31): 12.2 µM (inactive)
GI50 (NCI-H23): 13.2 µM (inactive)
GI50 (MOLT-4): 7.4 µM (inactive)
GI50 (M19-MEL): 19.8 µM (inactive)
GI50 (UACC-257): 31 µM (inactive)
GI50 (TK-10): 23.7 µM (inactive)
GI50 (SK-MEL-2): 10.3 µM (inactive)
GI50 (OVCAR-8): 17.9 µM (inactive)
GI50 (EKVX): 25 µM (inactive)
GI50 (RPMI-8226): 13.2 µM (inactive)
GI50 (HCT-15): 9.73 µM
GI50 (CCRF-CEM): 4.3 µM (inactive)
GI50 (KM-20L2): 4.69 µM (inactive)
GI50 (DLD-1): 9.33 µM (inactive)
